For this test, the system named is Cytokinin-dependent tobacco callus Nicotiana tabacum L. cv. Wisconsins 38. In words: Tobacco callus bioassay for cytotoxicity (herbicidal activity). The class given is cell-based. In outline: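 Compounds were prepared in DMSO as a 10^−3 M stock in water. Growth inhibition was scored from fresh callus weight gain after four weeks, with five replicates and the test run at least twice.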

Consider “5-(3-aminopropylamino)-7-benzylamino-3-isopropylpyrazolo[4,3-d]pyrimidine [Compound 17]”, for which the “Inhibition of tobacco callus growth” value was “inhibitory effect”.

For the origin of these results see patent US7745450B2, “Pyrazolo[4,3-d]pyrimidines, processes for their preparation and methods for therapy” (Institute of Experimental Botany, priority 2002, dated 2010).
